Results taken from ChEMBL document CHEMBL1147204, “Synthesis and antimicrobial evaluation of some new thiazole, thiazolidinone and thiazoline derivatives starting from 1-chloro-3,4-dihydronaphthalene-2-carboxaldehyde” (2007).

What was measured:
Assay type in all cases: functional
Aspergillus niger [1] = assay: Antifungal activity against Aspergillus niger by agar diffusion technique
Bacillus subtilis [2] = assay: Antimicrobial activity against Bacillus subtilis by agar diffusion technique
Escherichia coli [3] = assay: Antimicrobial activity against Escherichia coli by agar diffusion technique
Aspergillus oryzae [4] = assay: Antifungal activity against Aspergillus oryzae by agar diffusion technique
Priestia megaterium [5] = assay: Antimicrobial activity against Bacillus megaterium by agar diffusion technique
Bacillus subtilis [6] = assay: Antimicrobial activity against Bacillus subtilis at 25 ug/mL by agar diffusion technique; details: read-out: IZ
Aspergillus niger [7] = assay: Antifungal activity against Aspergillus niger at 25 ug/mL by agar diffusion technique; details: read-out: IZ
Escherichia coli [8] = assay: Antimicrobial activity against Escherichia coli at 25 ug/mL by agar diffusion technique; details: read-out: IZ
Priestia megaterium [9] = assay: Antimicrobial activity against Bacillus megaterium at 25 ug/mL by agar diffusion technique; details: read-out: IZ
Aspergillus oryzae [10] = assay: Antifungal activity against Aspergillus oryzae at 25 ug/mL by agar diffusion technique; details: read-out: IZ

SMILES	inhibition zone (IZ) (Aspergillus niger [1]) [mm]	inhibition zone (IZ) (Bacillus subtilis [2]) [mm]	inhibition zone (IZ) (Escherichia coli [3]) [mm]	inhibition zone (IZ) (Aspergillus oryzae [4]) [mm]	inhibition zone (IZ) (Priestia megaterium [5]) [mm]	zone of inhibition at 25 µg/mL (Bacillus subtilis [6]) [mm]	zone of inhibition at 25 µg/mL (Aspergillus niger [7]) [mm]	zone of inhibition at 25 µg/mL (Escherichia coli [8]) [mm]	zone of inhibition at 25 µg/mL (Priestia megaterium [9]) [mm]	zone of inhibition at 25 µg/mL (Aspergillus oryzae [10]) [mm]
O=C1CSC(N/N=C/C2=C(Cl)c3ccccc3CC2)=N1	66	35	30	78	40					
ClC1=C(/C=N/Nc2nc(-c3ccccc3)cs2)CCc2ccccc21	77	65	56	79	68					
CCOC(=O)C1SC(N/N=C/C2=C(Cl)c3ccccc3CC2)=NC1=O (configuration not stated)	69	42		73	35					
Cc1csc(N/N=C/C2=C(Cl)c3ccccc3CC2)n1	72	55	40	75	60					
ClC1=C(/C=N/Nc2nc(-c3ccccc3)c(/N=N/c3ccccc3)s2)CCc2ccccc21	79	85	49	82	79					
COc1ccc(/N=N/c2sc(N/N=C/C3=C(Cl)c4ccccc4CC3)nc2-c2ccccc2)cc1	75	90	55	86	84					
O=C1/C(=C\c2ccc(Cl)cc2)S/C(=N\N=C\C2=C(Cl)c3ccccc3CC2)N1c1ccccc1	58	42		69	43					
O=C1N=C(N/N=C/C2=C(Cl)c3ccccc3CC2)S/C1=C/c1ccc(Cl)cc1	75	34	25	74	34					
COc1ccc(/N=N/c2sc(N/N=C/C3=C(Cl)c4ccccc4CC3)nc2C)cc1	80	87	50	86	85					
O=c1c2c(ncn1/N=C/C1=C(Cl)c3ccccc3CC1)sc(=S)n2-c1ccccc1	78	95	85	86	92					
Nc1sc(=S)n(-c2ccccc2)c1C(=O)N/N=C/C1=C(Cl)c2ccccc2CC1	64	89	60	75	82					
O=C1CS/C(=N\N=C\C2=C(Cl)c3ccccc3CC2)N1c1ccccc1	63	66		71	55					
Cc1nc(N/N=C/C2=C(Cl)c3ccccc3CC2)sc1/N=N/c1ccccc1	84	81	60	89	86					
CC1(C)S[C@@H]2[C@H](NC(=O)[C@H](N)c3ccccc3)C(=O)N2[C@H]1C(=O)O [AMPICILLIN]						40	33	26	29	
O=C(N[C@H](CO)[C@H](O)c1ccc([N+](=O)[O-])cc1)C(Cl)Cl [CHLORAMPHENICOL]						30	35	48	55	
OC(Cn1cncn1)(Cn1cncn1)c1ccc(F)cc1F [FLUCONAZOLE]							22			16
